These results are taken from patent US20230097883A1, “ERGOTHIONEINE PET COMPOUNDS AND METHODS OF USE THEREOF” (VANDERBILT UNIVERSITY, priority 2021, published 2023).

A short description of data set [1]: Cupric ion chelating (CIC) assay. As to conditions: increasing ERGO concentrations. In kind it is biochemical. The source says: (§1) We also assessed ERGO's transition metal scavenging using cupric ion chelating (CIC) and ferrous ion chelating (FIC) assays. In these experiments, pyrocatechol violet or ferrozine forms a complex with free Cu(II) or Fe(II), respectively, resulting in a chromophore with a strong absorbance signal. The pyrocatechol violet-COI) complex has an absorbance lambda max (λmax) at 630 nm, and ferrozine-Fe(II) has a λmax at 562 nm. In the presence of ERGO, fewer free metals are available to form these complexes, resulting in less absorbance.
The copper chelating activity of ERGO was determined using a CIC assay (Zen-Bio Inc., Durham, N.C.). Assays contained triplicated samples, standards, background, and max absorbance wells. All the assay absorbance values were subtracted from the average background absorbance, comprising of water and assay buffer (1:1). Maximal absorbance was measured by averaging the absorbance values of 3 wells containing only CuSO4 and assay buffer. […] The plate was then read at 632 nm using a Biotek Synergy 4 plate reader. Absorbances were averaged, and the background absorbance was subtracted from the sample and maximum averages (Abstest and Absmax). Cupric ion chelating percentage was then calculated using the following equation: Cupric ion chelating (%)=100×(Absmax−Abstest)/Absmax.

Data set [2] relates to neuroblastoma SH-SY5Y cells. Kind of data set: DCFH-DA ROS scavenging assay in SH-SY5Y cells. In kind it is cell-based. The source says: We used a commercially available DCFH-DA (2′,7′-dichlorodihydrofluorescein diacetate) probe to assess the ROS scavenging power of ERGO in HeLa and neuroblastoma SH-SY5Y cells. Upon penetrating the cytoplasm, DCFH-DA is deacetylated by endogenous esterases to a non-fluorescent intermediate, followed by oxidation by free radicals. This generates a continuous and extended conjugation system, resulting in the production of highly fluorescent DCF (2′ 7′-dichlorofluorescein). In an aqueous condition, DCF has a maximal excitation and emission of 495 nm and 529 nm, respectively. Well-adhered HeLa or SH-SY5Y cells previously incubated with DCFH-DA were exposed to a commercial ROS initializer and ERGO concentrations ranging from 0-100 mM. […] Each point in the assay was measured in pentaplicate, p<0.0001.
On day 1, HeLa cells or SH-SY5Y cells were seeded into a 96-well plate with a density of 10,000 cells/mL. […] Immediately afterwards, fluorescence measurement began using a microplate reader (Biotek Industries, Agilent Technologies, Winooski, Vt., USA) with an excitation and emission wavelength of 485 nm and 528 nm, respectively. Each ERGO concentration was measured in pentaplicate.

The test system of data set [3] is 5XFAD mice. Kind of data set: Rotarod after ERGO treatment. The data set is classed as in vivo, mouse. As to conditions: ERGO-treated 5XFAD versus non-treated 5XFAD and WT, three days of testing. The protocol:
To address our primary question whether longitudinal consumption of ERGO as a potent antioxidant benefit the brain, three cohorts of animals (n=12 non-treated WT control, n=12 non-treated 5XFAD, and n=18 ERGO-treated 5XFAD) were used (FIG. 3.2A). Starting at the age of 8 weeks, the animals were treated with high doses of ERGO solution (25-50 mg/Kg) formulated in double distilled (dd) water via oral gavage three times a week over the course of eight weeks. To reduce bias in the behavioral experiments with regard to the potential stress during gavage treatment, non-treated animals underwent the identical gavage process with the vehicle, water, only. The efficacy of the therapy was evaluated by behavioral testing, followed by three different non-invasive PET imaging sessions to assess biomarkers related to AD pathology. In addition to assessing Abeta levels and glucose metabolism using the [^11C]PIB and [^18F]FDG probes, respectively; we also tested for the first time whether oxidative stress could be used as an indicator of response to therapy using the [^11C]ERGO PET radioligand. Finally, animals were euthanized, and the brains were collected for immunohistochemical analysis. […]
Neuromuscular ability and motor learning were assessed using a standard rotarod (Ugo Basile). […] Time to fall was recorded automatically when mice fell from the rod onto a base plate.
For orientation: Falling from the rotarod earlier than controls is read as motor impairment.

Data set [4] can be described thus: Ferrous ion chelating (FIC) assay. The data set is classed as biochemical. As to conditions: increasing ERGO concentrations.
Description: as §1
The iron chelating activity of ERGO was determined using a FIC assay, which was obtained from Zen-Bio Inc. (Durham, N.C.). The assay was done on a 96-well plate with triplicated samples, standards, background, and max absorbance wells. All of the assay absorbance values were subtracted from the average background absorbance, comprising of water and assay buffer (1:1). Maximal absorbance was measured by averaging the absorbance values of 3 wells containing only FeSO4 and assay buffer. […] The assaying plate was incubated at room temperature for 10 minutes then the plate was read at 562 nm using a Biotek Synergy 4 plate reader. Absorbances were averaged, and the background absorbance was subtracted from the sample and maximum averages (Abstest and Absmax). […]

“Also recorded” adds a separate entry of the source.

For the compound `C[N+](C)(C)[C@@H](Cc1c[nH]c(=S)[nH]1)C(=O)[O-]` [ERGO, L-ergothioneine], in data set [1], the “absorbance signal of pyrocatechol violet-Cu(II) complex” value is reported as “decreased as the concentrations of ERGO increased in a dose-dependent fashion”. Moreover, the “DCF fluorescence signal (ROS)” value in data set [2] (ERGO 100 mM) was “nearly negligible; also recorded: quenches the fluorescence totally”; in data set [2] (ERGO starting from 5 mM), “attenuates the fluorescence significantly”. For the same compound, the “rotarod latency to fall, group differences” value in data set [3] was “no differences among the groups”. Also, in data set [4], the “absorbance signal of ferrozine-Fe(II) complex” value is “decreased as the concentrations of ERGO increased in a dose-dependent fashion”.
